The test system of data set [1] is PA1 human ovarian tumor cells. The experiment in a line: Tumor cell growth inhibition, PA1 cells (cell counting). The note with it: PA-1, 5-100 μM, 3 d (72 h) exposure, electronic cell counting, mean ± SE, read-out: IC50 (concentration required to inhibit cell number by 50%). Format: cell-based.
Data set [2] can be described thus: Growth inhibition of a panel of cell lines by taurolidine. Format: cell-based. The conditions noted are these: range over all cell lines evaluated; read-out: IC50s, growth inhibition.
Data set [3] deals with DU-145 human prostate tumor cells. Description: Flow cytometry (propidium iodide) apoptosis, sub-G0/G1 peak. The conditions noted are these: DU-145 cells, 50 μM, 24 h. Format: cell-based. (A flow cytometer gives signals particle by particle.)
A further data set in a line: Stability in solution. Format: physicochemical. An excerpt:
The prolonged stability is an advantage over taurolidine.

In the case of `O=S1(=O)CCN(CN2CCS(=O)(=O)NC2)CN1` [Taurolidine, Bis-(1,1-dioxoperhydro-1,2,4-thiadiazinyl-4)methane], the results for the IC50 in data set [1] and in data set [2] were 11.4 ± 1.8 µM and 9.6 to 45 µM, respectively. Besides, the “% apoptosis (sub-G0/G1 peak area)” value in data set [3] was determined as 12.27%. Moreover, the stability in solution result in “Stability in solution” was “very unstable in solution and spontaneously decomposes”.

Values taken from US6812251B2, “Taurine compounds” (priority 2001, dated 2004).
